Measurements reported in EP4656642A1, “ESTROGEN RECEPTOR PROTEOLYSIS TARGETING CHIMERA COMPOUND AND USE THEREOF” (GAN & LEE PHARM CO., LTD, priority 2023, dated 2024).
pIC50: −log10 of the molar value.

Legend:
Assay type in all cases: cell-based
MCF-7 cells [1] = assay: Inhibition of cell proliferation of MCF-7 cells (CCK-8, 6 days); details: 6 days of treatment, Table 4
Source text: Test Example 3 Inhibitory effect of the PROTAC compounds provided in the present disclosure on cell proliferation of MCF-7 cells
The complete medium required for MCF-7 cells (source ATCC) was DMEM (gibco, Product number :11995-065) basal medium containing 10% fetal bovine serum. MCF-7 cells were inoculated in 96-well plates at a density of 800 cells/well, and different concentrations of the PROTAC compounds 1-55 provided in the examples of the present disclosure and a positive control sample ARV-471 (source: Innochem) were prepared to treat the cells, and the cells were treated at 37°C in a cell culture incubator with 5% CO2 for 6 days. Cell viability was detected using a CCK-8 kit (Beyotime, Product number: C0040) according to the manufacturer's instructions. The IC50 values of each PROTAC compound after 6 days of treatment were calculated using GraphPadPrism software based on the inhibition rate, and the results are shown in Table 4. Table 4 IC50 values for inhibition of the proliferation of MCF-7 cells by the PROTAC compounds of the present disclosure and positive control sample

T-47D cells = assay: Inhibition of cell proliferation in T-47D cells (CCK-8, 6 days); details: 6 days of treatment
In short: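 Viability read-out was CCK-8 after 6 days of compound treatment (37 °C, 5% CO2) across graded concentrations. Cells were T-47D seeded at 3,000 per well in 1640 medium plus 10% FBS. IC50 was calculated against proliferation.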

AR protein = target: T1, AR protein (Homo sapiens, UniProt P10275, T878A); assay: Degradation of AR protein in LNCAP cells (Western blot, 8 h); details: LNCaP FGC cells
T1 construct: host or cells: LNCaP FGC
T1 sequence (P10275 1-920 T878A): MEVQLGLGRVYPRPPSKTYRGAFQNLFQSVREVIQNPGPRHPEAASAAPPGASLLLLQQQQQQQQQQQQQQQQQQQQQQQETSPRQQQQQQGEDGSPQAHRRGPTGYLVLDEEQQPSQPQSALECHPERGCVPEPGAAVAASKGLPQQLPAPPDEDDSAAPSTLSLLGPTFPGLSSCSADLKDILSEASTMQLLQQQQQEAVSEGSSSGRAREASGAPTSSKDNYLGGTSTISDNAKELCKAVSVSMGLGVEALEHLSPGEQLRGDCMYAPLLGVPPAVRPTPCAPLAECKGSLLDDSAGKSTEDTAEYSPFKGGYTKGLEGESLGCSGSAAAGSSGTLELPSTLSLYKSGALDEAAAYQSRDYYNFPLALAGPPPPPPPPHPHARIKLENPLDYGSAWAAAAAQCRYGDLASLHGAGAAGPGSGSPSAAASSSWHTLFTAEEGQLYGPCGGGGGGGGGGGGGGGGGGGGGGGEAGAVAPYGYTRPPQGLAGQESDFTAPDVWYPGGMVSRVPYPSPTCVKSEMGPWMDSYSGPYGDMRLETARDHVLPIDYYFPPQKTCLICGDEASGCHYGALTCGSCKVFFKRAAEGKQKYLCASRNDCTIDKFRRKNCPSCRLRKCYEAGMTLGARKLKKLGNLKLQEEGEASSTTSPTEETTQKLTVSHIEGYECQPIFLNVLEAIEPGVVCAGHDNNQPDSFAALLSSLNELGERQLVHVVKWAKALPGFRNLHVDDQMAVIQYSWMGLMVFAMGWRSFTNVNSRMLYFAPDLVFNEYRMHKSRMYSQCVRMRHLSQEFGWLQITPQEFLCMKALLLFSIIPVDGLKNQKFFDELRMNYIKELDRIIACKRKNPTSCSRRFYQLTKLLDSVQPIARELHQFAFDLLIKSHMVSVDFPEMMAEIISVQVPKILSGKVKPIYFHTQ
Method: After 8 h, the culture medium was discarded, and the cells were washed with PBS. After the cells were washed with PBS, RIPA lysis buffer containing 1% Protease Inhibitor Cocktail was added, and the total protein extract was obtained after lysis and centrifugation, and the protein concentration in the extract was detected by BCA method. Protein electrophoresis was carried out by SDS-PAGE, after which the proteins were transferred to PVDF (Millipore Sigma Catalog No. PSRP010R5) membrane by 100V constant voltage electrotransfer for 60 min, and the PVDF membrane was placed in 1×TBST solution with 5% milk and blocked at room temperature for 1h. […] The primary antibody solution was discarded, and the PVDF membrane was washed three times with 1× TBST for 5 min each. […] The secondary antibody solution was discarded, and the PVDF membrane was washed three times with 1× TBST for 5 min each. Western membrane imaging was performed using a dual-color infrared laser imaging system (Licor catalog number Odyssey CLX). Bands were analyzed in grayscale using the software Image Studio. For each sample, GAPDH protein bands were detected as internal reference. The degradation rates of the AR protein for the compounds and positive control sample were calculated based on the grayscale of the protein bands.

MCF-7 cells [2] = assay: Inhibition of cell proliferation of MCF-7 cells (CCK-8, 9 days)
In short: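 Read-out was CCK-8 viability after 9-day continuous exposure (37°C, 5% CO2) of MCF-7 cells plated at 800/well in 10% FBS DMEM across several compound concentrations. Values are proliferation IC50s.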

ERα [3] = target: T2, ERα (Homo sapiens, UniProt P03372); assay: Degradation of ERα in T-47D cells (immunoblotting, 4 h); parameters: host or cells: T-47D
T2 sequence (P03372 1-595): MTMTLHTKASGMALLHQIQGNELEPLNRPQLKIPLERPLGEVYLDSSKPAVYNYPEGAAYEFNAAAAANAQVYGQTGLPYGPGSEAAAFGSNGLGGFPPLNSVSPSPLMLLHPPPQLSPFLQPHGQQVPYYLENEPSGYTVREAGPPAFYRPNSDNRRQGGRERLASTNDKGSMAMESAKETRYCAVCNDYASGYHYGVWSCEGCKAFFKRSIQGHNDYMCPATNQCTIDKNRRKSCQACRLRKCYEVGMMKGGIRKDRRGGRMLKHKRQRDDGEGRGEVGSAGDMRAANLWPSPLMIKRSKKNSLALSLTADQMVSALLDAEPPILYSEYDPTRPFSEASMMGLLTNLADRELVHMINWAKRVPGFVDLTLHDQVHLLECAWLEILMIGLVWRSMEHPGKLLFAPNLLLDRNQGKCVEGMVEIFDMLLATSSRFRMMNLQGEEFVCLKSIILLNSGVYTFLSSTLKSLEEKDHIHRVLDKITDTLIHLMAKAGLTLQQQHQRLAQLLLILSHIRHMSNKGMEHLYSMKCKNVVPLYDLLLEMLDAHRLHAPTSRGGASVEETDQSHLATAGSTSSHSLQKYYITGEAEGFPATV
In short: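 ERα protein levels were assessed by immunoblot of RIPA lysates (with protease inhibitor) after 4 h exposure at 37°C. Compound was added in DMSO to T-47D cells at final concentrations of 0.15-1000 nM.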

ERα [4] = target: T2, ERα; assay: Degradation of ERα in MCF-7 cells (immunoblotting, 4 h)
In short: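 Degradation rate reflects ERα band intensity, corrected to an internal reference protein, relative to control. Values come from Western blotting of lysates from MCF-7 cells exposed 4 h at 37°C to compounds at final concentrations of 0.15-1000nM.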

[5] = treated for 9 days, CCK-8 kit (Table 6)

Row | Structure (SMILES) | pIC50 (MCF-7 cells [1]) | pIC50 (T-47D cells; Table 2) | Degradation rates of the AR protein in LNCAP cells, 10 nM (%) (AR protein) | Degradation rates of the AR protein in LNCAP cells, 100 nM (%) (AR protein) | pIC50 (MCF-7 cells [2]; [5]) | Degradation rate (%) of ERα in T-47D cells (ERα [3]; 1nM compound) | Degradation rate (%) of ERα in T-47D cells (ERα [3]; 10nM compound) | Degradation rate (%) of ERα in MCF-7 cells (ERα [4]; 1nM compound) | Degradation rate (%) of ERα in MCF-7 cells (ERα [4]; 10nM compound) | pIC50 (T-47D cells; Table 3) | pIC50 (MCF-7 cells [2]; 9 days of treatment, CCK-8, Table 5)
1 | O=C1CCC(N2C(=O)c3cc4c(cc3C2=O)OCC2(CCN(CC3CN(c5ccc(C6c7ccc(O)cc7CCC6c6ccccc6)cc5)C3)CC2)C4)C(=O)N1 (stereo not drawn) [O1] | 4.27 | 6.89 |  |  |  |  |  |  |  |  | 
2 | C[C@H]1CC2(CCN(c3ccc(C(=O)N4CCC(CN5CCC6(CC5)COc5cc7c(cc56)CN(C5CCC(=O)NC5=O)C7=O)CC4)cc3)CC2)CN1c1ccc(C#N)c(Cl)c1 (stereo partly drawn) [2-384] |  |  | 48% | 63% |  |  |  |  |  |  | 
3 | O=C1CCC(N2C(=O)c3cc4c(cc3C2=O)OC2(CC4)CCN(CC3CCC4(CC3)CCN(c3ccc([C@@H]5c6ccc(O)cc6CC[C@@H]5c5ccccc5)cc3)CC4)CC2)C(=O)N1 (stereo partly drawn) [A43] |  |  |  |  | 7.21 | 7% | 26% | -2% | -8% | 7.39 | 
4 | O=C1CCC(N2Cc3c(ccc4c3OCC43CCN(C(=O)CC4CCN(c5ccc([C@@H]6c7ccc(O)cc7CC[C@@H]6c6ccccc6)cc5)CC4)CC3)C2=O)C(=O)N1 (stereo partly drawn) [H16] |  |  |  |  | 5.01 | 48% | 69% | 9% | 37% | 8.24 | 
5 | O=C1CCC(N2Cc3c(ccc4c3OCC43CCN(C(=O)CC4CCN(C(=O)C5CCN(c6ccc([C@@H]7c8ccc(O)cc8CC[C@@H]7c7ccccc7)cc6)CC5)CC4)CC3)C2=O)C(=O)N1 (stereo partly drawn) [A123] |  |  |  |  | 6.79 | 66% | 84% | 29% | 61% | 8.87 | 
6 | O=C1CCC(N2Cc3cc4c(cc3C2=O)CCC2(CN(C3CCC5(CC3)CCN(c3ccc([C@@H]6c7ccc(O)cc7CC[C@@H]6c6ccccc6)cc3)CC5)C2)O4)C(=O)N1 (stereo partly drawn) [A33] |  | 8.04 |  |  |  | 12% | 56% | -7% | 26% |  | 7.52
7 | O=C1CCC(N2Cc3cc4c(cc3C2=O)OC2(CC4)CN(CC3CCN(c4ccc([C@@H]5c6ccc(O)cc6CC[C@@H]5c5ccccc5)cc4)CC3)C2)C(=O)N1 (stereo partly drawn) [H3] |  |  |  |  | 5.62 | -43% | -56% | -20% | -37% | 6.70 | 
8 | CCC(C(=O)N1CCC2(CC1)COc1c2ccc2c1CN(C1CCC(=O)NC1=O)C2=O)N1CCC2(CCN(c3ccc([C@@H]4c5ccc(O)cc5CC[C@@H]4c4ccccc4)cc3)CC2)C1 (stereo partly drawn) [A95] |  |  |  |  | 6.70 | 52% | 68% | 42% | 48% | 8.83 | 
9 | O=C1CCC(N2Cc3ccc4c(c3C2=O)OCC2(CCN(CC3CCN(c5ccc([C@@H]6c7ccc(O)cc7CC[C@@H]6c6ccccc6)cc5)CC3)CC2)C4)C(=O)N1 (stereo partly drawn) [H5] |  |  |  |  | 5.65 | 18% | 12% | -3% | -12% | 7.65 | 
10 | O=C1CCC(N2Cc3ccc4c(c3C2=O)OCC42CCN(C(=O)CN3CCC4(CCN(c5ccc([C@@H]6c7ccc(O)cc7CC[C@@H]6c6ccccc6)cc5)CC4)C3)CC2)C(=O)N1 (stereo partly drawn) [A92] |  |  |  |  | 7.94 | 48% | 66% | 36% | 66% | 8.87 | 

More lines, now with the values ahead:

Row | pIC50 (MCF-7 cells [1]) | pIC50 (T-47D cells; Table 2) | Degradation rates of the AR protein in LNCAP cells, 10 nM (%) (AR protein) | Degradation rates of the AR protein in LNCAP cells, 100 nM (%) (AR protein) | pIC50 (MCF-7 cells [2]; [5]) | Degradation rate (%) of ERα in T-47D cells (ERα [3]; 1nM compound) | Degradation rate (%) of ERα in T-47D cells (ERα [3]; 10nM compound) | Degradation rate (%) of ERα in MCF-7 cells (ERα [4]; 1nM compound) | Degradation rate (%) of ERα in MCF-7 cells (ERα [4]; 10nM compound) | pIC50 (T-47D cells; Table 3) | pIC50 (MCF-7 cells [2]; 9 days of treatment, CCK-8, Table 5) | Structure (SMILES)
11 |  |  | 20% | 70% |  |  |  |  |  |  |  | C[C@H]1CC2(CCN(c3ccc(N4CCC(CN5CCC6(CC5)COc5cc7c(cc56)CN(C5CCC(=O)NC5=O)C7=O)CC4)cc3)CC2)CN1c1ccc(C#N)c(Cl)c1 (stereo partly drawn) [2-376]
12 |  |  |  |  | 6.79 | 35% | 65% | 18% | 37% | 8.99 |  | O=C1CCC(N2Cc3c(ccc4c3OCC43CCN(C(=O)CN4CC[C@]5(CCN(c6ccc([C@@H]7c8ccc(O)cc8CC[C@@H]7c7ccccc7)cc6)C5)C4)CC3)C2=O)C(=O)N1 (stereo partly drawn) [H21]
13 |  |  |  |  | 7.03 | 49% | 82% | 39% | 74% | 8.92 |  | C[C@@H]1Cc2c([nH]c3ccccc23)[C@@H](c2c(F)cc(N3CCC4(CCN(CC(=O)N5CCC6(CC5)COc5c6ccc6c5CN(C5CCC(=O)NC5=O)C6=O)C4)CC3)cc2F)N1CC(F)F (stereo partly drawn) [A111]
14 |  |  |  |  | 6.92 | 41% | 62% | 39% | 54% | 7.89 |  | C[C@@H]1Cc2cc(O)ccc2[C@@H](c2c(F)cc(N3CC4(CCC(N5CCC6(CC5)COc5c6ccc6c5CN(C5CCC(=O)NC5=O)C6=O)CC4)C3)cc2F)N1CC(F)(F)F (stereo partly drawn) [I4]
